In one test the test system is rabbit eyes. To be noted: 1 day post-injection.
Test [1] relates to conjunctival blood vessels of rabbit eyes. As to the kind of experiment: Evans blue dye assay of conjunctival vascular permeability. Type of test: in vivo, New Zealand White rabbits. On the procedure:
Method 1: Evans blue dye assay. […] Animals were anesthetized with 2-5% isofluorane gas administered via mask. The eyes were sterilized with 5% iodine (povidone iodine (HUMCO, Texarkana, Tex., USA) diluted to 5% in BSS (Alcon, Fort Worth, Tex., USA)) and 2-3 drops of 0.5% ophthalmic proparacaine (Alcon, Fort Worth, Tex., USA) was administered as a topical anesthetic. Right eyes (OD) received subconjunctival injections of 50 microliters of C-NOD in 100% DMSO. Left eyes (OS) received subconjunctival injections of 50 microliters of 100% DMSO. 40 mg/kg of Evans blue dye (Sigma-Aldrich, St. Louis, Mo., USA) was then injected into an ear vein. Eyes were photographed and tear samples were collected at 1, 2 and 3 days post injection. Tears were collected by insertion of 7 mm discs of Whatman 3M filter paper (Whatman, Inc., Piscataway, N.J., USA) under the lower eyelid for 2 minutes. The filter paper discs were stored in 200 microliters of a phosphate buffered saline solution […] at 5-10° C. Absorption at 620 nm was used to quantify Evans blue dye in tears.
An initial test of the ability of a nitric oxide donor B-NOD (Bing, R. J., Biochem. Biophys. Res. Comm. (2000) 275, 350) to increase conjunctival vascular permeability was performed. Fifty microliters of 100 mg/ml B-NOD in DMSO was injected OD, while DMSO vehicle was injected OS. Some eyes received no injection. Vascular permeability was assessed using the Evans blue dye assay. […] The difference between B-NOD and C-NOD may be due to the shorter half-life predicted for B-NOD.

For test [2], the system named is epithelial corneal lesions in diabetic patients. To be noted: prospective, randomized, masked clinical trial; cited from earlier work.
A further test relates to rabbit eyes (tears). In words: Total protein and serum albumin assay of tears. In kind it is in vivo, New Zealand White rabbits. On the procedure:
Prior to subconjunctival injection, tear samples were collected from the eyes of the rabbits. Tears were collected by simultaneous insertion of two 7 mm discs of Whatman 3M filter paper (Whatman, Inc., Piscataway, N.J., USA) under the lower eyelid for 2 minutes. The filter paper discs were stored in 200 microliters of a phosphate buffered saline solution containing 0.05% Tween and 0.02% sodium azide at 5-10° C. Animals were anesthetized with 2-5% isofluorane gas administered via mask. The eyes were sterilized with 5% iodine (povidone iodine (HUMCO, Texarkana, Tex., USA) diluted to 5% in BSS (Alcon, Fort Worth, Tex., USA)) and 2-3 drops of 0.5% ophthalmic proparacaine (Alcon, Fort Worth, Texan, USA) was administered as a topical anesthetic. Right eyes (OD) received subconjunctival injections of 50 microliters of C-NOD in 100% DMSO. Left eyes (OS) received subconjunctival injections of 50 microliters of 100% DMSO. Tear samples were collected at 1 hour, then every day for up to 5 days.
Protein content of tears was assessed by two methods. First, total protein was measured using a Bio-Rad Protein Assay Kit (Bio-Rad Laboratories, Hercules, Calif., USA). Second, rabbit serum albumin was measured using an Assaypro Rabbit Albumin ELISA kit (Assaypro LLC, St. Charles, Mo., USA). Both kits were used according to the manufacturer's instructions. […]

In the case of `NCCc1c[nH]c2ccc(O)cc12` [Serotonin], in the test with rabbit eyes, the Chemosis result was “Trace”, the Injection entry is given as “None” and the Mucous discharge result is “None”.
For the molecule `O=C(Oc1cccc(CO[N+](=O)[O-])c1)c1ccccc1O` [B-NOD], the “Evans blue dye in tears versus uninjected eyes” value in test [1] (50 microliters of 100 mg/ml in DMSO, by 24 hours) was “This difference disappeared”; in test [1] (50 microliters of 100 mg/ml in DMSO, six hours post-injection), “more Evans blue dye than did uninjected eyes”. Also, the “Evans blue dye in tears versus vehicle injected eyes” value in test [1] (50 microliters of 100 mg/ml in DMSO, throughout the experiment) was “about the same amount of Evans blue dye as did vehicle injected eyes”.
As for hyaluronic acid, the epithelial healing time in test [2] was 7.1 days.
Regarding `NCCc1c[nH]cn1` [Histamine], in the test with rabbit eyes, the Injection result is on record as “Trace” and the Mucous discharge entry was “Trace”. Besides, in the test with rabbit eyes (conditions not optimized), the “observable clinical response in the eyes” value was “observable clinical response”.
With `CCOC(=O)Oc1ccccc1C(=O)Oc1cccc(CO[N+](=O)[O-])c1` [C-NOD], the “presence of subconjunctival dark Evans blue dye (photographs)” value in test [1] (66 mg/ml subconjunctival, 24, 48 and 72 hours post injection, versus vehicle injected eyes) is recorded as “evident”. Besides, the “Evans blue dye in tears versus DMSO vehicle injected eyes” value in test [1] (absorption at 620 nm, in most cases, especially at 48 hours) is given as “more Evans blue dye present in the tears”. Also, the “total protein content of tears” value in the test on rabbit eyes (tears) (10 or 20 mg/cc, 1 day post injection, relative to uninjected eyes, N=4) is “significantly increased protein content of tears”. The “proportion of serum albumin in tears (albumin to total protein)” value in the test with rabbit eyes (tears) (each concentration, relative to vehicle injection, 1 hour and 5 days post-injection) was “increased”.

B1: Angiopoietin-2: candidate stimulator of vascular permeability (protein, UniProt O15123 19-496, looked up)
Angiopoietin-2: YNNFRKSMDSIGKKQYQVQHGSCSYTFLLPEMDNCRSSSSPYVSNAVQRDAPLEYDDSVQRLQVLENIMENNTQWLMKLENYIQDNMKKEMVEIQQNAVQNQTAVMIEIGTNLLNQTAEQTRKLTDVEAQVLNQTTRLELQLLEHSLSTNKLEKQILDQTSEINKLQDKNSFLEKKVLAMEDKHIIQLQSIKEEKDQLQVLVSKQNSIIEELEKKIVTATVNNSVLQKQQHDLMETVNNLLTMMSTSNSAKDPTVAKEEQISFRDCAEVFKSGHTTNGIYTLTFPNSTEEIKAYCDMEAGGGGWTIIQRREDGSVDFQRTWKEYKVGFGNPSGEYWLGNEFVSQLTNQQRYVLKIHLKDWEGNEAYSLYEHFYLSSEELNYRIHLKGLTGTAGKISSISQPGNDFSTKDGDNDKCICKCSQMLTGGWWFDACGPSNLNGMYYPQRQNTNKFNGIKWYYWKGSGYSLKATTMMIRPADF
Take B1: in the test with rabbit eyes, the Chemosis result is “None”, the Injection result is reported as “None” and the Mucous discharge entry was “None”.
